Test results taken from patent publication US11109593B2, “Isoxazolin-5-one derivative and herbicide containing same as active ingredient” (HOKKO CHEMICAL INDUSTRY CO., LTD., priority 2017, dated 2021).

What was measured:
Format in all cases: in vivo
Amaranthus viridis [1] = assay: Test Example 4: herbicidal effect test by treatment of leave and stem in dry field farming (seven days after seeding); details: 120 g/10a active ingredient; emulsion sprayed seven days after seeding; evaluated 14 days after treatment
In short: (§1)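 Duplicate pots were scored 14 days post-spray by dry weight, herbicidal rate = {1 − treated/untreated average dry weight} × 100. The water-diluted emulsion, equivalent to 120 g active ingredient per 10 ares in 100 L, was applied seven days after sowing 20 seeds each into the upper 1 cm of alluvial soil.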

Chenopodium album [2] = assay: as above; details: 120 g/10a active ingredient; emulsion sprayed seven days after seeding; evaluated 14 days after treatment
In short: as §1

Echinochloa crus-galli [3] = assay: as above; details: 120 g/10a active ingredient; emulsion sprayed seven days after seeding; evaluated 14 days after treatment
In short: as §1

southern crabgrass [4] = assay: as above; details: 120 g/10a active ingredient; emulsion sprayed seven days after seeding; evaluated 14 days after treatment
In short: as §1

Scirpus juncoides [5] = assay: Test Example 1: herbicidal effect test by treatment of rice paddy soil (immediately after seeding); details: 120 g/10a active ingredient, dry weight vs untreated area, 14 days after treatment
In short: (§2)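 Application occurs immediately after seeding, with diluted emulsion added to paddy water (about 3 cm deep) over puddled, fertilized soil at 120 g active ingredient per 10 ares. Herbicidal rate is calculated from mean dry weight against untreated controls 14 days later.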

Echinochloa crus-galli [6] = assay: as above; details: 120 g/10a active ingredient, dry weight vs untreated area, 14 days after treatment
In short: as §2

[7] = system: broad leaf weeds (Lindernia pyxidaria and Monochoria vaginalis); assay: as above; details: 120 g/10a active ingredient, dry weight vs untreated area, 14 days after treatment
In short: as §2

Amaranthus viridis [8] = assay: Test Example 3: herbicidal effect test by treatment of dry field farming soil (one day after seeding); details: 120 g/10a active ingredient, evaluated 14 days after treatment
In short: (§3)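 Dry-field alluvium pots; weed seeds incorporated in top 1 cm; soil spray of diluted emulsion 1 d after seeding, 120 g a.i./10 a in 100 L/10 a. Readout: % reduction of dry weight vs untreated, day 14, duplicates.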

Chenopodium album [9] = assay: as above; details: 120 g/10a active ingredient, evaluated 14 days after treatment
In short: as §3

Echinochloa crus-galli [10] = assay: as above; details: 120 g/10a active ingredient, evaluated 14 days after treatment
In short: as §3

southern crabgrass [11] = assay: as above; details: 120 g/10a active ingredient, evaluated 14 days after treatment
In short: as §3

Scirpus juncoides [12] = assay: Test Example 2: herbicidal effect test by treatment during growing period in paddy rice cultivation (seven days after seeding); details: 120 g/10a active ingredient, assessed 14 days after treatment, dry weight vs untreated area
In short: (§4)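 Post-emergence paddy water application: compounds were formulated as emulsions, diluted and dropped into flooded pots seven days after sowing at a rate equivalent to 120 g per 10 ares. Efficacy was taken as dry-weight reduction relative to untreated controls after 14 days.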

Echinochloa crus-galli [13] = assay: as above; details: 120 g/10a active ingredient, assessed 14 days after treatment, dry weight vs untreated area
In short: as §4

[14] = system: broad leaf weeds (Lindernia pyxidaria and Monochoria vaginalis); assay: as above; details: 120 g/10a active ingredient, assessed 14 days after treatment, dry weight vs untreated area
In short: as §4

| SMILES | herbicidal effect (herbicidal rate), Amaranthus viridis (Amaranthus viridis [1]) [%] | herbicidal effect (herbicidal rate), Chenopodium album (Chenopodium album [2]) [%] | herbicidal effect (herbicidal rate), Echinochloa crus-galli (Echinochloa crus-galli [3]) [%] | herbicidal effect (herbicidal rate), southern crabgrass (southern crabgrass [4]) [%] | Herbicidal rate (%) Scirpus juncoides (Scirpus juncoides [5]) [%] | Herbicidal rate (%) Echinochloa crus-galli (Echinochloa crus-galli [6]) [%] | Herbicidal rate (%) Lindernia pyxidaria [7] [%] | Herbicidal rate (%) Monochoria vaginalis [7] [%] | herbicidal rate, Amaranthus viridis (Amaranthus viridis [8]) [%] | herbicidal rate, Chenopodium album (Chenopodium album [9]) [%] | herbicidal rate, Echinochloa crus-galli (Echinochloa crus-galli [10]) [%] | herbicidal rate, southern crabgrass (southern crabgrass [11]) [%] | Herbicidal rate (%) Scirpus juncoides (Scirpus juncoides [12]) [%] | Herbicidal rate (%) Echinochloa crus-galli (Echinochloa crus-galli [13]) [%] | Herbicidal rate (%) Lindernia pyxidaria [14] [%] | Herbicidal rate (%) Monochoria vaginalis [14] [%] |
| --- | --- | --- | --- | --- | --- | --- | --- | --- | --- | --- | --- | --- | --- | --- | --- | --- |
| CC(=O)N(c1ccccc1Cc1c(C)n(CC(C)(C)C)oc1=O)S(=O)(=O)C(F)(F)F [Compound 1-298] | 40 | 40 | 90 | 90 | 90 | 90 | 90 | 90 | 90 | 90 | 90 | 90 | 90 | 90 | 90 | 90 |
| COCC(C)n1oc(=O)c(Cc2ccccc2N(C(=O)Cc2ccccc2)S(=O)(=O)C(F)(F)F)c1C (stereo not drawn) [Compound 1-506] | 40 | 40 | 90 | 90 | 90 | 90 | 90 | 90 | 90 | 90 | 90 | 90 | 90 | 90 | 90 | 90 |
| Cc1c(Cc2ccccc2N(C(=O)OCc2ccccc2)S(=O)(=O)C(F)(F)F)c(=O)on1C(C)(C)C [Compound 1-781] | 40 | 40 | 90 | 90 | 90 | 90 | 90 | 90 | 90 | 90 | 90 | 90 | 90 | 90 | 90 | 90 |
| CCC(C)n1oc(=O)c(Cc2ccccc2N(C(=O)OCCOC)S(=O)(=O)C(F)(F)F)c1C (stereo not drawn) [Compound 1-731] | 40 | 40 | 90 | 90 | 90 | 90 | 90 | 90 | 90 | 90 | 90 | 90 | 90 | 90 | 90 | 90 |
| COC(=O)N(c1ccccc1Cc1c(C)n(C(C)C)oc1=O)S(=O)(=O)C(F)(F)F [Compound 1-575] | 30 | 90 | 90 | 90 | 100 | 90 | 100 | 100 | 40 | 40 | 90 | 90 | 100 | 90 | 100 | 100 |
| CCC(=O)N(c1ccccc1Cc1c(C)n(C(C)c2ccccc2)oc1=O)S(=O)(=O)C(F)(F)F (stereo not drawn) [Compound 1-321] | 40 | 40 | 90 | 90 | 90 | 90 | 90 | 90 | 90 | 90 | 90 | 90 | 90 | 90 | 90 | 90 |
| Cc1c(Cc2ccccc2N(C(=O)C(C)C)S(=O)(=O)C(F)(F)F)c(=O)on1C(C)c1ccccc1 (stereo not drawn) [Compound 1-337] | 40 | 40 | 90 | 90 | 90 | 90 | 90 | 90 | 90 | 90 | 90 | 90 | 90 | 90 | 90 | 90 |
| Cc1c(Cc2cccc(Cl)c2NS(=O)(=O)C(F)(F)F)c(=O)on1C(C)C [Compound 1-33] | 0 | 40 | 90 | 40 | 100 | 80 | 90 | 90 | 0 | 40 | 90 | 70 | 80 | 60 | 60 | 60 |
| Cc1c(Cc2ccccc2NS(=O)(=O)C(F)(F)F)c(=O)on1C [Compound 1-97] | 40 | 40 | 90 | 90 | 100 | 100 | 100 | 100 | 0 | 0 | 90 | 90 | 90 | 90 | 80 | 60 |
